Test systems include 786-0 renal; DLD-1 colon; M19-MEL melanoma; HOP-18 NSCLC; DMS 114 small cell lung; XF 498 CNS; SNB-78 CNS; SN12K1 renal; P388 leukemia; P388/ADR leukemia.
What all share (test): NCI tumour cell line growth inhibition, 48 h

Several values for one entry are separate records, joined by “and”; a condition that tells them apart may be missing. Equal entries are not always repeated.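 In this assay, cells in 96-well plates receive the compound at five concentrations for 48 hours. Endpoints are linearly interpolated between the surrounding concentrations. GI50 = concentration required for 50% inhibition of growth. TGI is the concentration that stops growth completely.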

In turn, `C(/C=C/c1ccccc1)=Nc1ccc2c(c1)Cc1ccccc1-2` registered a TGI in the assay with 786-0 renal greater than 100 µM.

On to `NC(=S)N/N=C/c1nccc2ccccc12`, for which the TGI in the assay with DLD-1 colon was greater than 100 µM; with M19-MEL melanoma, 3.41 µM; in the assay with HOP-18 NSCLC, greater than 100 µM; in the assay on DMS 114 small cell lung, 2.51 µM.

On to `NC(CSCc1ccc(I)cc1)C(=O)O` (configuration not stated), for which, in the assay on 786-0 renal, the TGI was greater than 100 µM.

In the case of `Cc1nc2c(c(=O)[nH]1)S/C(=C(/C#N)c1nc3ccccc3[nH]1)N2c1ccccc1`, the TGI in the assay on DLD-1 colon, with M19-MEL melanoma, in the assay on XF 498 CNS, with DMS 114 small cell lung and with SNB-78 CNS was greater than 100 µM in each case.

In the case of `O=C1C(Cl)N(c2cccc(Cl)c2)C1c1c[nH]c2ccccc12` (configuration not stated), the TGI in the assay on M19-MEL melanoma, with XF 498 CNS and in the assay on DMS 114 small cell lung was greater than 100 µM in each case.

Take `Nc1ccccc1Nc1ccccc1C(=O)[O-].Nc1ccccc1Nc1ccccc1C(=O)[O-].[Zn+2]`: the TGI was 78.7 µM with XF 498 CNS and greater than 100 µM in the assay on 786-0 renal.

Regarding `COc1cc([C@@H]2c3cc4c(c(O)c3C[C@H]3COC(=O)[C@@H]32)OCO4)cc(OC)c1OC`, the GI50 in the assay on DLD-1 colon is 0.0646 nM; in the assay with SN12K1 renal, 0.0526 nM; with M19-MEL melanoma it was 0.000137 µM; in the assay on SNB-78 CNS, 0.011 nM. The TGI in the assay on SN12K1 renal came out at 0.000207 µM; with P388 leukemia, 0.551 µM; with XF 498 CNS, 0.0887 µM; in the assay on HOP-18 NSCLC it was 61.9 µM; with DMS 114 small cell lung it was 1.5 µM; with P388/ADR leukemia, 35.1 µM. Further, the TGI in the assay on 786-0 renal is 46.8 µM and > 100 µM.

`C=C(C)C(=O)O[C@H]1CC2=C[C@@H](C[C@@]3(C)O[C@@H]3[C@H]3OC(=O)C(=C)[C@@H]31)OC2=O`: the TGI in the assay with DLD-1 colon was found to be 3.3 µM; in the assay on SN12K1 renal it was 12.1 µM; with M19-MEL melanoma, 6.52 µM; in the assay with P388 leukemia, 15.6 µM; in the assay on HOP-18 NSCLC it was 10.9 µM; in the assay on DMS 114 small cell lung, 9.35 µM. Further, the TGI is 11.1 µM in the assay on P388/ADR leukemia and 300 µM in the assay on SNB-78 CNS. Moreover, the GI50 in the assay with HOP-18 NSCLC was 6.42 µM; in the assay on SNB-78 CNS, 1270 nM.

Source of the values: PubChem BioAssay (NCI).
